Test [1] concerns Human peripheral blood mononuclear cells (PBMC). Nature of the test: TNF-α release from LPS-stimulated PBMC. The format is cell-based. The note with it: Lipopolysaccharide 1 microg/ml, 18 hours, AlphaLISA, read-out: TNF-α IC50 range. A digest of the protocol:
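Thawed human PBMC in serum-free buffer with 0.5% human serum albumin were stimulated with 1 microg/ml LPS alongside titrated compound for 18 h at 37 °C. Supernatant TNFα was measured by AlphaLISA at 615 nm, and IC50 was derived relative to LPS-only and 10 microM reference PDE4 inhibitor controls.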
Background: Alpha assays give light when donor and acceptor beads are brought close together.

Test [2] addresses human PDE4D catalytic domain (UniProt no. Q08499 [S380-L740]) (Homo sapiens (Human), UniProt Q08499). Description: PDE4 assay (TR-FRET, cAMP hydrolysis). The format is biochemical. The note with it: read-out: PDE4 IC50 range. A digest of the protocol:
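The human PDE4D catalytic domain (S380-L740) was incubated with unlabelled plus FAM-labelled cAMP and titrated compound, briefly. Product AMP was detected by Tb-nanoparticle TR-FRET. IC50 (nM) came from Tb-normalized signal scaled between DMSO and 10 microM reference-inhibitor controls.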

The term IC50 denotes the concentration at which inhibition is half-maximal.

Sequence of human PDE4D catalytic domain (Q08499 380-740): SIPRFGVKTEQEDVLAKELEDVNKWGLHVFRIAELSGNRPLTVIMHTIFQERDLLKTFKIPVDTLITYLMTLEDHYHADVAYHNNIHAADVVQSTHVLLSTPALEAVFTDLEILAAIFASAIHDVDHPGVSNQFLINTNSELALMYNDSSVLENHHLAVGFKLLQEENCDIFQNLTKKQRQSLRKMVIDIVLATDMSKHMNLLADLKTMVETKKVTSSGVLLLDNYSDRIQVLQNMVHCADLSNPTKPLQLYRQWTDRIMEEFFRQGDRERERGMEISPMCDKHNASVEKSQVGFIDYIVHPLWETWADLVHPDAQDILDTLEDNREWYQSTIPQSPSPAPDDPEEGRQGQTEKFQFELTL

Consider `O=C(OC1CN(c2nc3c(c(NC4CC5(COC5)C4)n2)[S+]([O-])CC3)C1)c1cnsc1` (stereo in doubt) [Example 69, [1-[(5S)-4-(6-oxaspiro-[3.3]heptan-2-ylamino)-5-oxido-6,7-dihydrothieno-[3,2-d]pyrimidin-5-ium-2-yl]azetidin-3-yl] isothia-zole-4-carboxylate], for which the IC50 is over 500 nM in test [1] and 100 to 500 nM in test [2].

Consider `CC(=O)N1CCC(C(=O)OC2CN(c3nc4c(c(N(C)C5CCOCC5)n3)[S+](O)CC4)C2)CC1` (centres unmarked) [Example 49, [1-[4-[methyl(tetra-hydropyran-4-yl)amino]-5-oxido-6,7-dihydro-thieno[3,2-d]pyrimidin-5-ium-2-yl]azetidin-3-yl] 1-acetylpiperidine-4-carboxylate], for which the IC50 in test [1] and in test [2] was under 100 nM throughout.

For the compound `CCN(c1nc(N2CC(OC(=O)c3cscn3)C2)nc2c1[S+]([O-])CC2)C1CCOCC1` (centres unmarked) [Example 8, [1-[4-[Ethyl(tetrahydropyran-4-yl)amino]-5-oxido-6,7-dihydrothieno[3,2-d]pyrimidin-5-ium-2-yl]azetidin-3-yl] thiazole-4-carboxylate], the IC50 in test [1] and in test [2] was 100 to 500 nM throughout.

As for `Cc1cc(C(=O)OC2CN(c3nc4c(c(N(C)C5CCOCC5)n3)[S+]([O-])CC4)C2)nn1C` (centres unmarked) [Example 31, [1-[4-[methyl(tetra-hydropyran-4-yl)amino]-5-oxido-6,7-dihydro-thieno[3,2-d]pyrimidin-5-ium-2-yl]azetidin-3-yl] l,5-dimethylpyrazole-3-carboxylate], the IC50 in test [1] and in test [2] was under 100 nM each time.

As to `CCc1cc(C(=O)OC2CN(c3nc4c(c(N(C)C5CCOCC5)n3)[S+]([O-])CC4)C2)nn1C` (centres unmarked) [Example 45, [1-[4-[methyl(tetra-hydropyran-4-yl)amino]-5-oxido-6,7-dihydro-thieno[3,2-d]pyrimidin-5-ium-2-yl]azetidin-3-yl] 5-ethyl-1-methyl-pyrazole-3-carboxylate], the concentration for half-maximal inhibition (IC50) in test [1] and in test [2] was under 100 nM in each case.

Regarding `O=C(OC1CN(c2nc3c(c(NC4CCOCC4)n2)[S@@+]([O-])CC3)C1)c1cscn1` [Example 2, [1-[(5R)-5-Oxido-4-(tetrahydropyran-4-ylamino)-6,7-dihydrothieno[3,2-d]pyrimidin-5-ium-2-yl]azetidin-3-yl] thiazole-4-carboxylate], the IC50 in test [1] and in test [2] was under 100 nM each time.

As to `CN(c1nc(N2CC(OC(=O)c3ccc(S(=O)(=O)C4CCCC4)cc3)C2)nc2c1[S+]([O-])CC2)C1CCOCC1` (centres unmarked) [Example 62, [1-[4-[methyl(tetra-hydropyran-4-yl)amino]-5-oxido-6,7-dihydro-thieno[3,2-d]pyrimidin-5-ium-2-yl]azetidin-3-yl] 4-cyclopentylsulfonyl-benzoate], the IC50 in test [1] and in test [2] was under 100 nM in each case.

With `COCCC(=O)OC1CN(c2nc3c(c(N(C)C4CCOCC4)n2)[S+]([O-])CC3)C1` (centres unmarked) [Example 13, [1-[4-[methyl(tetra-hydropyran-4-yl)amino]-5-oxido-6,7-dihydro-thieno[3,2-d]pyrimidin-5-ium-2-yl]azetidin-3-yl] 3-methoxypropanoate], the IC50 in test [1] and in test [2] was 100 to 500 nM in each case.

For the compound `Cc1ccc(C(=O)OC2CN(c3nc4c(c(N(C)C5CCOCC5)n3)[S@+](O)CC4)C2)cc1` [Example 64, [1-[(5R)-4-[methyl-(tetrahydropyran-4-yl)amino]-5-oxido-6,7-dihydrothieno[3,2-d]pyrimidin-5-ium-2-yl]azetidin-3-yl] 4-methylbenzoate], the IC50 in test [1] and in test [2] was under 100 nM each time.

For the compound `CN(c1nc(N2CC(OC(=O)c3ccc(S(C)(=O)=O)cc3)C2)nc2c1[S+](O)CC2)C1CCOCC1` (centres unmarked) [Example 54, [1-[4-[methyl(tetra-hydropyran-4-yl)amino]-5-oxido-6,7-dihydro-thieno[3,2-d]pyrimidin-5-ium-2-yl]azetidin-3-yl] 4-methylsulfonyl-benzoate], the 50% inhibitory concentration (IC50) in test [1] and in test [2] was under 100 nM each time.

Turning to `CN(c1nc(N2CC(OC(=O)c3cnsc3)C2)nc2c1[S+]([O-])CC2)C1CCOCC1` (centres unmarked) [Example 3, [1-[4-[Methyl(tetrahydropyran-4-yl)amino]-5-oxido-6,7-dihydrothieno[3,2-d]pyrimidin-5-ium-2-yl]azetidin-3-yl] isothiazole-4-carboxylate], the IC50 in test [1] and in test [2] was under 100 nM throughout.

`CCn1ccc(C(=O)OC2CN(c3nc4c(c(N(C)C5CCOCC5)n3)[S+]([O-])CC4)C2)n1` (centres unmarked) [Example 30, [1-[4-[methyl(tetra-hydropyran-4-yl)amino]-5-oxido-6,7-dihydro-thieno[3,2-d]pyrimidin-5-ium-2-yl]azetidin-3-yl] 1-ethylpyrazole-3-carboxylate]: the half-inhibitory concentration (IC50) in test [1] and in test [2] was under 100 nM in each case.

Consider `CN(c1nc(N2CC(OC(=O)C3CCOCC3)C2)nc2c1[S+]([O-])CC2)C1CCOCC1` (centres unmarked) [Example 23, [1-[4-[methyl(tetra-hydropyran-4-yl)amino]-5-oxido-6,7-dihydro-thieno[3,2-d]pyrimidin-5-ium-2-yl]azetidin-3-yl] tetrahydropyran-4-carboxylate], for which the concentration for half-maximal inhibition (IC50) in test [1] and in test [2] was under 100 nM each time.

As to `O=C(OC1CN(c2nc3c(c(NC4CC5(COC5)C4)n2)[S+](O)CC3)C1)c1cscn1` (centres unmarked) [Example 66, [1-[4-(6-oxaspiro[3.3]-heptan-2-ylamino)-5-oxido-6,7-dihydrothieno-[3,2-d]pyrimidin-5-ium-2-yl]azetidin-3-yl] thiazole-4-carboxylate], the IC50 in test [1] and in test [2] was under 100 nM throughout.

For the compound `CN(c1nc(N2CC(OC(=O)c3cscn3)C2)nc2c1[S+]([O-])CC2)C1CCOCC1` (centres unmarked) [Example 5, [1-[4-[Methyl(tetrahydropyran-4-yl)amino]-5-oxido-6,7-dihydrothieno[3,2-d]pyrimidin-5-ium-2-yl]azetidin-3-yl] thiazole-4-carboxylate], the IC50 in test [1] and in test [2] was under 100 nM each time.

Turning to `CNS(=O)(=O)c1ccc(C(=O)OC2CN(c3nc4c(c(N(C)C5CCOCC5)n3)[S+]([O-])CC4)C2)cc1` (centres unmarked) [Example 58, [1-[4-[methyl(tetra-hydropyran-4-yl)amino]-5-oxido-6,7-dihydro-thieno[3,2-d]pyrimidin-5-ium-2-yl]azetidin-3-yl] 4-(methylsulfamoyl)-benzoate], the IC50 in test [1] and in test [2] was under 100 nM in each case.

For the compound `CN(c1nc(N2CC(OC(=O)CCS(C)(=O)=O)C2)nc2c1[S+]([O-])CC2)C1CCOCC1` (centres unmarked) [Example 44], the IC50 in test [1] and in test [2] was 100 to 500 nM throughout.

For the compound `COc1cccc(C(=O)OC2CN(c3nc4c(c(N(C)C5CCOCC5)n3)[S+](O)CC4)C2)c1` (centres unmarked) [Example 43, [1-[4-[methyl(tetra-hydropyran-4-yl)amino]-5-oxido-6,7-dihydro-thieno[3,2-d]pyrimidin-5-ium-2-yl]azetidin-3-yl] 3-methoxybenzoate], the IC50 in test [1] and in test [2] was under 100 nM throughout.

With `CN(c1nc(N2CC(OC(=O)c3ccccc3)C2)nc2c1[S+]([O-])CC2)C1CCOCC1` (centres unmarked) [Example 16, [1-[4-[methyl(tetra-hydropyran-4-yl)amino]-5-oxido-6,7-dihydro-thieno[3,2-d]pyrimidin-5-ium-2-yl]azetidin-3-yl] benzoate], the IC50 in test [1] and in test [2] was under 100 nM each time.

Regarding `CN(c1nc(N2CC(OC(=O)c3ccc(C(=O)N4CCOCC4)cc3)C2)nc2c1[S+](O)CC2)C1CCOCC1` (centres unmarked) [Example 61, [1-[4-[methyl(tetra-hydropyran-4-yl)amino]-5-oxido-6,7-dihydro-thieno[3,2-d]pyrimidin-5-ium-2-yl]azetidin-3-yl] 4-(morpholine-4-carbonyl)benzoate], the IC50 in test [1] and in test [2] was under 100 nM each time.

In the case of `CCS(=O)(=O)c1ccc(C(=O)OC2CN(c3nc4c(c(N(C)C5CCOCC5)n3)[S+]([O-])CC4)C2)cc1` (centres unmarked) [Example 57, [1-[4-[methyl(tetra-hydropyran-4-yl)amino]-5-oxido-6,7-dihydro-thieno[3,2-d]pyrimidin-5-ium-2-yl]azetidin-3-yl] 4-ethylsulfonylbenzoate], the IC50 in test [1] and in test [2] was under 100 nM in each case.

As for `O=C(OC1CN(c2nc3c(c(NC4CCOCC4)n2)[S@@+]([O-])CC3)C1)C1CCCC1` [Example 11, [1-[(5R)-5-oxido-4-(tetrahydropyran-4-ylamino)-6,7-dihydro-thieno[3,2-d]pyrimidin-5-ium-2-yl]azetidin-3-yl] cyclopentanecarboxylate], the IC50 in test [1] and in test [2] was under 100 nM in each case.

The values above are taken from patent US11365204B2, “Substituted dihydrothienopyrimidines and their use as phosphodiesterase inhibitors” (UNION therapeutics A/S, priority 2017, dated 2022).
